Experimental data reported in patent US12084411B2, “Hinokitiol analogues, methods of preparing and pharmaceutical compositions thereof” (The Board of Trustees of the University of Illinois, priority 2018, dated 2024).
Counter-ions that a name gives are not always drawn. Marks after values point to notes of the source that are not given here.

Columns and labels:
fet3Δftr1Δ yeast [1] = assay: Growth rescue of fet3Δftr1Δ yeast with small molecules in liquid media; format: cell-based, Saccharomyces cerevisiae; details: liquid low iron SD media, 10 μM FeCl3
Procedure: (§1) Growth rescue in yeast was performed similar to previously reported (20) using 10 μM hinokitiol in low iron SD liquid media containing 10 μM FeCl3 in a 96-well plate unless otherwise noted. Wild type and fet3Δftr1Δ controls treated with vehicle (DMSO) were performed under identical conditions using the same low iron SD media containing 10 μM FeCl3 in the absence of hinokitiol. Yeast were grown overnight in YPD media and diluted at an OD600 of 0.1 in SD media, diluted 10-fold, and incubated at 30° C. with continuous shaking (200 rpm). The OD600 was obtained 24-48 hours after inoculation unless otherwise noted.
(§2) Small molecule dose-response (FIG. 1F) with hinokitiol and C2-deoxy hinokitiol (C2deOHino, see synthesis below) was determined by addition of the small molecule (40X stock solution in DMSO) to give the indicated final concentrations.

wild-type yeast (WT) = assay: Toxicity to wild type yeast (structure-activity study, FIG. 25)
Procedure: as §1, §2

fet3Δftr1Δ yeast [2] = assay: Growth rescue of iron-deficient yeast with small molecules on agar plates; format: cell-based, Saccharomyces cerevisiae; details: low iron SD-agar plates, 10 μM FeCl3
[3] = Iron (II) binding affinity, ferrozine competition assay; details: pH 7.0
Procedure: (§3) Specifically, the association constant for iron (II) was determined by a ferrozine competition assay (KA of ferrozine=3.65×10^15) (60). FeCl2 (25 μM) was pre-mixed with ferrozine (75 μM) in a 25 mM MES/Tris buffer at pH=7.0 containing 62.5 mM sodium ascorbate. Then increasing concentrations of small molecule (from 40X stocks in DMSO) were added to the indicated final concentrations. The solutions were allowed to equilibrate for 24 hours before reading of the absorbance at 562 nm. […] The system was allowed to equilibrate overnight, and the absorbance corresponding to the Fe(chelator)3 complex was determined. The EC50 values for each chelator were calculated by a nonlinear curve fit (Hill1) on OriginPro by plotting the absorbance vs. concentration of titrant, and the KA for each complex was determined from the equation: KA, ligand=(KA, competitor*[EC50])/[ligand] where the ligand is the molecule originally bound to iron, and the competitor is the competing chelator.

[4] = Iron (III) binding affinity, EDTA or citrate competition assay; details: for KA for iron (III): EDTA competition (citrate for maltol), pH 7.0; for pFe^III: estimated from known pFe of EDTA (citrate for maltol)
Procedure: as §3

[5] = Iron efflux from liposomes using ferrozine; format: biochemical; details: 5 μM small molecule
Procedure: Iron (III) efflux from POPC liposomes was determined similar to previously reported (64). POPC liposomes were prepared as similarly reported (65) using 30 mM FeCl3, 62.5 mM citrate at pH=7.0 in 25 mM Mes/Tris buffer. External iron was removed by size exclusion chromatography using Sephadex G-50 and eluting with external buffer. External buffer consisted of 62.5 mM ascorbate at pH=7.0 in 25 mM Mes/Tris buffer. The liposomes were diluted to 1 mM phosphorus in this buffer. Ferrozine (Sigma 160601) was added (100X stock in external buffer) to a final concentration of 500 μM. Liposomal suspension was then transferred to a 96-well plate, and either DMSO or 5 μM hinokitiol, C2deOHino, deferiprone, or PIH (40X stock solution in DMSO) were added to initiate the experiment. The OD562 was determined every minute over the course of 2 hours using a plate-reader with continuous shaking at 30° C. to detect the relative amounts of external ferrozine-iron chelate at the indicated times. After 2 hours, liposomes were lysed with Triton-X to give 100% iron efflux.
Iron (II) efflux was performed as described above, however, the internal buffer alternatively consisted of 30 mM FeSO4, 62.5 mM ascorbate at pH=7.0 in 25 mM Mes/Tris buffer and Triton-X lysis was performed after 1 hour.
The rates of iron efflux with increasing concentrations of intraliposomal iron and/or hinokitiol were determined as described above using the indicated concentration of iron and hinokitiol. For the varying concentrations of iron, hinokitiol (10 μM) was added to the POPC liposomes, and the change in absorbance at 562 nm was determined over 2 hours. For the varying concentrations of hinokitiol, 30 mM intraliposomal iron was used as described above. The concentration of iron outside of liposomes was determined using the extinction coefficient for ferrozine-iron (27,900 M^−1 cm^−1) (66). This was used to determine the amount of iron released from liposomes at the indicated times using the total volume for each experiment. Rates of iron efflux were determined after one hour of hinokitiol treatment.

[6] = Electrochemical studies (cyclic voltammetry) of iron:chelator complexes; format: physicochemical
Procedure: Potentiostatic electrochemical methods were performed on a CH Instruments electrochemical workstation (model 760 C, Austin, TX) on a three-electrode cell. Hg working electrodes were fabricated by the electrodeposition of Hg on a Pt wire utilizing the procedure previously described by Barton et al. (70). All experiments were reported versus a Ag/AgCl reference electrode and utilized a graphite auxiliary electrode. The electrolyte was sparged with UHP argon before measurements. A positive pressure of argon was maintained throughout the experiments.
Unless otherwise indicated, experiments used a 0.1 M Tris buffer in H2O or 1:1 MeOH:H2O at pH=7.2 using HNO3 and KOH as titrant. Unless otherwise indicated, experiments used a 100 mV/s scan rate, 100 μM Fe(NO3)3, and 500 μM small molecule. All redox potentials are recorded versus a normal hydrogen electrode (NHE).
The estimated redox potential of Fe(Hino)n was determined through extrapolation of the best-fit line of the determined redox potentials of Fe(Hino)n as a function of the concentration of MeOH in the 0.1 M Tris buffer at pH=7.2.

[7] = system: DMT1-deficient Caco-2 monolayers; assay: 55Fe uptake and transport in DMT1-deficient Caco-2 monolayers; details: apical addition (hinokitiol 500 nM); pH 5.5 apical, pH 7.4 basolateral; four hours
Procedure: Media from differentiated Caco-2 monolayers (P25-50, 21-28 days post seeding) grown on PET inserts in 6-well plates was aspirated, and monolayers were rinsed with PBS. 2 mL of basolateral fluid (serum-free DMEM at pH=7.4 in 10 mM HEPES buffer) was added to the basolateralside, and 1 mL of apical fluid (serum-free DMEM at pH=5.5 in 10 mM MES buffer) containing 200 nM ^55FeCl3 or the indicated concentration of FeCl3 and either DMSO vehicle, hinokitiol, C2deOHino, deferiprone, PIH, SIH, or deferoxamine mesylate (Sigma D9533) (500 nM Hino/C2deOHino for DMT1-deficiency, 1 μM Hino/C2deOHino for FPN1-deficiency, or indicated concentration of small molecule from a 1000X stock in DMSO) was added to the apical side via addition on the wall of the membrane insert without disrupting the cell monolayer. The monolayers were then incubated for four hours at 37° C. unless otherwise noted. A 100 μL aliquot of the basolateral fluid was removed, diluted in scintillation cocktail, and radioactivity was determined on a liquid scintillation counter to quantify relative amounts of ^55Fe transport. To determine intracellular ^55Fe, the basolateral and apical media was removed, and the monolayer was rinsed with PBS (×2). The cells were then lysed with 500 μL of 200 mM NaOH with nutator mixing overnight, and radioactivity was determined on a liquid scintillation counter after diluting the cell lysate in scintillation cocktail. All values were normalized to shControl monolayers unless otherwise noted. Absolute iron levels were determined through calibration of ^55Fe radioactivity levels with known standards and average mg of protein per membrane was determined by protein lysis with RIPA buffer containing protease inhibitors and quantified through a BCA kit according to manufacturer instructions.
TEER determination in Caco-2 monolayers (FIG. 12D and FIG. 14L) To determine Caco-2 membrane integrity, transport studies were performed as described above, except for the use of non-radioactive iron instead of ^55FeCl3. At the indicated time points, the transepithelial electrical resistance (TEER) was determined with an epithelial voltohmmeter and compared to the TEER of the membrane at the beginning of the experiment.

[8] = in parenthesis, cited from earlier work; for pFe^III, literature value: References 104, 106
[9] = not run under identical conditions, cited from earlier work; for E^0 Aqueous, literature value: Table 2, in parenthesis; for E^0 literature: Table 6
[10] = WST-8 toxicity in Caco-2 cells; details: human, wild type Caco-2 cells
Procedure: Determination of small molecule-mediated toxicity in Caco-2, MEL, and/or J774 cells was performed according to manufacturer instructions using a WST-8 kit (Cayman Chemical 10010199) similar to previously reported (76) using a 1000× stock of the indicated small molecule in DMSO to give the indicated final concentration.

[11] = system: hinokitiol-rescued fet3Δftr1Δ yeast; assay: Chemical inhibition of yeast cell growth with inhibitors of Pma1, V-ATPase; format: cell-based, Saccharomyces cerevisiae; details: 10 μM hinokitiol, 10 μM FeCl3
Procedure: Increasing dosages of caspofungin (Sigma SML0425), ebselen (Sigma 70530), or bafilomycin B1 (Santa Cruz sc-202072) (40X stocks in DMSO) were added to a yeast suspension (10-fold dilution from OD600=0.1) to give the indicated final dose. EC50 values were calculated from fitting of yeast growth curves using GraphPad PRISM.

CC(C)CCc1cccc(O)c(=O)c1 [4-isopentyl tropolone]
restoration of fet3Δftr1Δ yeast growth, small molecule dose-response (fet3Δftr1Δ yeast [1]): no rescue | toxicity to wild type yeast (wild-type yeast (WT)): most toxic

Cc1c(O)c(=O)ccn1C [Deferiprone, deferiprone]
growth rescue of fet3Δftr1Δ yeast (fet3Δftr1Δ yeast [2]): no growth rescue | KA for iron (II) [3]: 2.1 × 10^15 | KA for iron (III) [4]: 1.2 × 10^24 | pFe^III [4]: 22^+ | transport of ferrous and ferric iron across model liposomal membranes [5]: minimal transport | E^0 Aqueous ([6]; Table 2): −420 mV vs. N.H.E. | E^0 1:1 MeOH:H2O ([6]; Table 2, 0.1 M Tris, pH 7.2): −410 mV vs. N.H.E. | iron uptake and transepithelial transport [7]: did not promote both uptake and transport | pFe^III, literature value [8]: (21)^§ | E^0 Aqueous, literature value [9]: (−423)^# mV vs. N.H.E. | EC90 [10]: > 100 µM

O=C(O)CN(CCN(CC(=O)O)CC(=O)O)CC(=O)O [EDTA]
KA for iron (II) [3]: 1.2 × 10^15 | E^0 Aqueous ([6]; Table 2): 131 mV vs. N.H.E. | E^0 1:1 MeOH:H2O ([6]; Table 2, 0.1 M Tris, pH 7.2): 139 mV vs. N.H.E. | KA for iron (III), literature value ([8]; Reference 60): (1.7 × 10^24)* | pFe^III, literature value [8]: (22)^∥ | E^0 Aqueous, literature value [9]: (137)**** mV vs. N.H.E.

O=C([O-])CN(CCN(CC(=O)[O-])CC(=O)[O-])CC(=O)[O-].[Fe+3] [Fe^III(EDTA)]
E^0 Aqueous ([6]; Table 6): 181 mV vs. N.H.E. | E^0 1:1 MeOH:H2O ([6]; Table 6, pH 7.2, 500 μM small molecule, 100 μM Fe(NO3)3): 139 mV vs. N.H.E. | E^0 literature [9]: 137^§ mV vs. N.H.E.

Cc1occc(=O)c1O [Maltol, maltol]
KA for iron (II) [3]: 7.8 × 10^13 | KA for iron (III) [4]: 3.9 × 10^17 | pFe^III [4]: 15.4^± | E^0 Aqueous ([6]; Table 2): 41 mV vs. N.H.E. | E^0 1:1 MeOH:H2O ([6]; Table 2, 0.1 M Tris, pH 7.2): 8 mV vs. N.H.E. | pFe^III, literature value [8]: (15)^§ | E^0 Aqueous, literature value [9]: (40)*** mV vs. N.H.E.

NC(=O)c1ccc[n+]([C@@H]2O[C@H](COP(=O)([O-])OP(=O)(O)OC[C@H]3O[C@@H](n4cnc5c(N)ncnc54)[C@H](OP(=O)(O)O)[C@@H]3O)[C@@H](O)[C@H]2O)c1 [NADP^+]
E^0 literature [9]: 108 mV vs. N.H.E.

Cc1ncc(CO)c(C=NNC(=O)c2ccncc2)c1O [PIH, pyridoxal isonicotinoyl hydrazone]
growth rescue of fet3Δftr1Δ yeast (fet3Δftr1Δ yeast [2]): no growth rescue | transport of ferrous and ferric iron across model liposomal membranes [5]: minimal transport | iron uptake and transepithelial transport [7]: did not promote both uptake and transport | EC90 [10]: 31 µM

O=C(NN=Cc1ccccc1O)c1ccncc1 [SIH, salicylaldehyde isonicotinoyl hydrazone]
growth rescue of fet3Δftr1Δ yeast (fet3Δftr1Δ yeast [2]): no growth rescue | iron uptake and transepithelial transport [7]: did not promote both uptake and transport

O=c1cccccc1O [Tropolone, tropolone]
restoration of fet3Δftr1Δ yeast growth, small molecule dose-response (fet3Δftr1Δ yeast [1]): shows rescue of Fet3Ftr1 yeast, but only at higher concentrations | toxicity to wild type yeast (wild-type yeast (WT)): does not show toxicity

CO/C1=C\C(C)=C\[C@@H](C)[C@@H](O)[C@@H](C)C/C(C)=C/C=C/[C@H](OC)[C@@H]([C@@H](C)[C@@H](O)[C@H](C)[C@@]2(O)C[C@@H](OC(=O)/C=C/C(=O)NC3=C(O)CCC3=O)[C@H](C)[C@@H](C(C)C)O2)OC1=O [bafilomycin, bafilomycin B1]
sensitivity of hinokitiol-rescued fet3Δftr1Δ yeast relative to hinokitiol-treated wild type yeast [11]: increased sensitivity

CC[C@H](C)C[C@H](C)CCCCCCCCC(=O)N[C@H]1C[C@@H](O)[C@@H](NCCN)NC(=O)[C@@H]2[C@@H](O)CCN2C(=O)[C@H]([C@H](O)CCN)NC(=O)[C@H]([C@H](O)[C@@H](O)c2ccc(O)cc2)NC(=O)[C@@H]2C[C@@H](O)CN2C(=O)[C@H]([C@@H](C)O)NC1=O [caspofungin]
sensitivity of hinokitiol-rescued fet3Δftr1Δ yeast relative to hinokitiol-treated wild type yeast [11]: equisensitive

CC(=O)N(O)CCCCCNC(=O)CCC(=O)N(O)CCCCCNC(=O)CCC(=O)N(O)CCCCCN [deferoxamine, deferoxamine mesylate]
iron uptake and transepithelial transport [7]: did not promote both uptake and transport
